Source: paper PMC10065799, “High-throughput profiling of sequence recognition by tyrosine kinases and SH2 domains using bacterial peptide display” (eLife, 2023)
Each block holds one sequence with its values, some of them ahead of it.

Key:
Assay in all cases: pTyr-Var library bacterial peptide display kinase screen (enrichment scores)
c-Abl kinase domain = molecular target: T1, c-Abl kinase domain (Mus musculus, UniProt P00520); format: biochemical;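 note: log2 fold change in enrichment of variant over reference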
T1 sequence (P00520 242-493 limits assumed): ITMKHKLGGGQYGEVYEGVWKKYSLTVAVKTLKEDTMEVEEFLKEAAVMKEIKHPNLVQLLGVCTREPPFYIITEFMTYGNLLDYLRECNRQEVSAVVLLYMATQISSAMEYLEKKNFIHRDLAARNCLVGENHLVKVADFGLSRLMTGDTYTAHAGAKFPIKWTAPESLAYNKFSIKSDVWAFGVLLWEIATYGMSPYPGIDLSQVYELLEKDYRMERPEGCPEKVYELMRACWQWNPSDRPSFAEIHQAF

EPHB1 kinase domain = format: biochemical, human; conditions: for Screen: sheet EPHB1, effect of the variant peptide relative to its reference peptide in the pTyr-Var library screen (enrichment scores); for Screen (variant relative to reference peptide, measured in the pTyr-Var library screen): sheet "EPHB1", variant seq vs reference seq, bacterial peptide display enrichment
c-Src kinase domain = c-Src kinase domain (Homo sapiens, UniProt P12931); format: biochemical; conditions: sheet "Src";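 note: log2 fold change in enrichment of variant over reference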
EPHB2 kinase domain = format: biochemical, human; conditions: sheet EPHB2
Fer kinase domain = format: biochemical, mouse; conditions: sheet "Fer"
[1] = sheet "Abl", effect of variant peptide relative to its reference peptide in pTyr-Var library screen (enrichment)
[2] = effect of the variant peptide relative to its reference peptide in the pTyr-Var library screen
[3] = fig5-data2, sheet "Abl", Screen for the variant/reference peptide pair, pTyr-Var library
[4] = effect of variant peptide relative to its reference peptide in the pTyr-Var library screen (enrichment scores)
[5] = variant peptide relative to its reference peptide, pTyr-Var library screen enrichment
[6] = value of the variant peptide against its reference peptide in the pTyr-Var library screen with Fer
[7] = variant peptide versus its reference peptide in the pTyr-Var library screen

Screen (c-Abl kinase domain; [1]): 1.206
Sequence: CDFKKYGKGLR [ZNF445_Y433_Y428C_YF]

Screen (EPHB1 kinase domain): -0.5322
Sequence: DGQVNYEELVQ [CALM1_Y139_F142L]

Sequence: HSKGIYFVQLE [MGAT4B_Y262_Q257H_YF]
Screen (c-Src kinase domain; [2]): 0.1036 | Screen (c-Abl kinase domain; [3]): -0.4742 | Screen (EPHB2 kinase domain; [4]): -0.5096

Screen (EPHB1 kinase domain): 0.7713 | Screen (EPHB2 kinase domain; [4]): 0.5582
Sequence: FTNELYMMMRD [FGFR1_Y730_C725Y_YF]

Screen (EPHB1 kinase domain): 1.338 | Screen (EPHB2 kinase domain; [4]): 1.457
Sequence: LVIIKYLPEWT [PSEN1_Y240_F237I]

Screen (Fer kinase domain; [5]): -0.5676
Sequence: LPVHFYSHVEH [PYGM_Y204_G205S]

Sequence: REVPVYTFSEP [FAM120B_Y368_D370Y_YF]
Screen (c-Src kinase domain; [2]): 3.398 | Screen (Fer kinase domain; [6]): 3.619 | Screen (EPHB1 kinase domain): 0.7576

Sequence: PNRILYGDFWQ [MYH6_Y717_R721W]
Screen (c-Src kinase domain; [2]): -0.3786

Sequence: RLDGEYFTLQI [TP53_Y327_P322R]
Screen (c-Src kinase domain; [7]): -0.8354 | Screen (c-Abl kinase domain; [1]): 0.2276

Sequence: SPPEVYAIMRG [NTRK1_Y757_C752S]
Screen (c-Src kinase domain; [7]): 0.1672

Sequence: LERFIYNPEEF [HLA-DPB1_Y59_R61P_YF]
Screen (c-Src kinase domain; [2]): 0.2405

Sequence: PLDAEYFTLQI [TP53_Y327_G325A]
Screen (c-Src kinase domain; [7]): 0.1358

Screen (variant relative to reference peptide, measured in the pTyr-Var library screen) (EPHB1 kinase domain): 3.351 | Screen (EPHB2 kinase domain; [4]): 2.197
Sequence: SSPQLYLVPFL [TAF4_Y652_P651L]

Sequence: RRIHSYRCHLW [VHL_Y112_G114C]
Screen (c-Src kinase domain; [7]): -2.304 | Screen (variant relative to reference peptide, measured in the pTyr-Var library screen) (EPHB1 kinase domain): -1.413

Sequence: TSQSQYSSFRE [CCDC170_Y323_F324S]
Screen (c-Src kinase domain; [2]): -1.483 | Screen (c-Abl kinase domain; [3]): 2.786

Screen (EPHB1 kinase domain): 1.863
Sequence: HGQVNYEEFVQ [CALM2_Y139_D134H]

Screen (c-Abl kinase domain; [1]): 0.8642
Sequence: RGKDNYETSQL [SPP1_Y225_S224N]

Screen (Fer kinase domain; [6]): 3.227
Sequence: VDSAHYQLLET [DTX3L_Y385_K386Q]

Screen (c-Abl kinase domain; [3]): 1.643
Sequence: GITTGYLVLKE [DNMT3B_Y588_A585T]

Sequence: CSEEMYCLMLQ [RET_Y981_R982C]
Screen (c-Src kinase domain; [7]): 1.894 | Screen (Fer kinase domain; [5]): 3.517

Sequence: PQAVTYATVKH [LILRB4_Y360_K362T]
Screen (c-Src kinase domain; [2]): 2.009

Sequence: KCLAVYQAGAR [APOE_Y180_R176C]
Screen (c-Src kinase domain; [2]): 2.645

Screen (c-Abl kinase domain; [3]): 0.2401
Sequence: TLPAFYMENFS [GLB1_Y552_G554E]

Screen (c-Abl kinase domain; [3]): -0.08587
Sequence: AFQGKYTPSGQ [ALDOA_Y343_C339Y_YF]

Screen (c-Abl kinase domain; [3]): 0.09357
Sequence: IVLRSYPASDH [NID2_Y449_G453D]

Sequence: LKLKAYRFSIS [LCT_Y974_V971L]
Screen (c-Src kinase domain; [2]): 1.678

Sequence: HESEIYGKVCF [CSRP3_Y57_C58G_YF]
Screen (c-Src kinase domain; [2]): -0.5157 | Screen (Fer kinase domain; [6]): 1.394

Sequence: NDENIYKGLPD [VAV3_Y141_D139N]
Screen (c-Src kinase domain; [7]): 1.088

Sequence: PLQHVYKIGGI [EEF1A2_Y254_D252H]
Screen (c-Src kinase domain; [2]): -2.182 | Screen (EPHB1 kinase domain): -0.7167

Sequence: RRIHSYRGHVW [VHL_Y112_L116V]
Screen (c-Src kinase domain; [7]): -1.808 | Screen (variant relative to reference peptide, measured in the pTyr-Var library screen) (EPHB1 kinase domain): -1.04

Sequence: GVSFIYTIDGS [DCX_Y105_R102S_YF]
Screen (c-Src kinase domain; [2]): 0.9806 | Screen (c-Abl kinase domain; [3]): -0.05601

Screen (c-Abl kinase domain; [3]): 0.0101
Sequence: IKKLIYVFLVI [JAGN1_Y42_H44Y_YF]

Screen (variant relative to reference peptide, measured in the pTyr-Var library screen) (EPHB1 kinase domain): 3.912 | Screen (EPHB2 kinase domain; effect of the variant relative to its reference peptide in the pTyr-Var library screen): 3.039
Sequence: FSPCDYQPCLA [TNS1_Y798_Y796C_YF]

Screen (EPHB2 kinase domain; [4]): -1.197
Sequence: LNCDRYSAGLL [PDE6A_Y275_V277A]

Screen (c-Abl kinase domain; [1]): -1.647
Sequence: FSALDYKIFFF [WDPCP_Y210_L205F_YF]

Sequence: KVALLYKPFFF [POLE_Y100_P99L_YF]
Screen (c-Src kinase domain; [7]): 1.635

Screen (c-Abl kinase domain; [1]): -1.268
Sequence: LSEEKYELKEG [TREM1_Y29_T25S]

Screen (c-Abl kinase domain; [1]): 0.6447
Sequence: EEETDYTPVWC [UROD_Y30_G25E]

Sequence: RRIHRYRGHLW [VHL_Y112_S111R]
Screen (c-Src kinase domain; [7]): -2.928 | Screen (variant relative to reference peptide, measured in the pTyr-Var library screen) (EPHB1 kinase domain): -1.747

Sequence: AEARMYGVLPW [PLP1_Y207_D203E]
Screen (c-Src kinase domain; [7]): -0.462 | Screen (EPHB2 kinase domain; [4]): -1.308

Sequence: KSDVMYTDWKK [ORM1_Y175_V174M]
Screen (c-Src kinase domain; [7]): -1.392

Sequence: LMFPDYLPCSV [SAG_Y129_T125M]
Screen (c-Abl kinase domain; [1]): 0.9994

Screen (c-Abl kinase domain; [3]): -1.246
Sequence: EDAHHYLCKEV [JAK2_Y382_A377E]

Sequence: IFSGIYFKPES [L2HGDH_Y102_H98Y_YF]
Screen (c-Src kinase domain; [2]): 0.7627 | Screen (EPHB1 kinase domain): 0.7253

Sequence: SVTCTYSLALN [TP53_Y126_P128L]
Screen (c-Src kinase domain; [7]): 1.349

Screen (Fer kinase domain; [6]): -0.4962
Sequence: QRPFVYFFSFL [PTEN_Y176_R173P_YF]

Sequence: SILTVYSKDNF [PANK2_Y400_A398T_YF]
Screen (c-Src kinase domain; [7]): -1.709

Sequence: KFDLMYAKRAF [TUBA3E_Y399_W402R]
Screen (c-Src kinase domain; [7]): -2.285 | Screen (Fer kinase domain; [5]): -3.735

Sequence: KFDLMYAKLAF [TUBA1A_Y399_R402L]
Screen (c-Src kinase domain; [7]): 2.907

Screen (c-Abl kinase domain; [1]): -0.2404
Sequence: TDTAAYEERLR [SPTB_Y474_V478L]

Screen (Fer kinase domain; [6]): 4.636
Sequence: INQGPYENHSV [ATP6V1B1_Y462_R465H]

Screen (c-Abl kinase domain; [3]): -0.4574
Sequence: DPHECYAKVFN [ALB_Y394_D399N]
